Assay results: patent US5081234A, “4'-demethylepipodophyllotoxin glycosides” (Bristol-Myers Squibb Co., priority 1990, dated 1992)
Values after ≈ are worked out from the molar mass of the structure shown.

How the values were obtained:
[1] = tested on: murine P388 lymphocytic leukemia; test: In vivo antitumor activity against murine P388 lymphocytic leukemia; parameters: species or system mice (female CDF1); settings: median survival time treated/control; P388 i.p. day 0, i.p. once on day 1 (Q1D×1), observed 45 days; maximum T/C, at dose (mg/kg): D 30, E 120, F 60, G 120, H 30, I 10, K 10, Etoposide 120; >125% considered significant
Protocol: Representative compounds of the present invention were evaluated against murine P388 lymphocytic leukemia. Female CDF1 mice were inoculated with 1.0×10^6 of leukemia cells intraperitoneally (day 0), and test materials were intraperitoneally administered to mice once on day 1 (Q1D×1). […] The median survival time (MST) of each group was recorded, and antitumor activity was expressed as T/C % values calculated by the following equation:
T/C%=(MST of treated.div.MST of control)×100

[2] = tested on: Murine melanoma B16-F10 cells; test: In vitro cytotoxicity vs B16-F10 (72 h, neutral red staining); assay type: cell-based; settings: Mus musculus, neutral red at 540 nm
Protocol: Murine melanoma B16-F10 cells were grown and maintained at 37° C. under a humidified atmosphere in a 5% CO2 incubator in Eagle's MEM medium (Nissui) containing kanamycin (60 μg/ml), and supplemented with heat inactivated fetal calf serum (10%) and non-essential amino acids (0.6%). For in vitro cytotoxicity experiments, exponentially growing B16-F10 cells were harvested, counted, and suspended in the culture medium at the concentration of 2.0×10^4 cells/ml. Twenty-four hours after planting cell suspension (180 μl ) into wells of a 96-well microtiter plate, test materials (20 μl) were added to the wells and the plates were incubated for 72 hours. The cytotoxic activity against B16-F10 cells was colorimetrically determined at 540 nm after staining viable cells with neutral red solution.

| SMILES | Antitumor Activity vs P388, Max % T/C [1] [%] | IC50 [2] [µg/mL] |
| --- | --- | --- |
| COc1cc([C@@H]2c3cc4c(cc3[C@@H](O[C@@H]3O[C@H](CO)[C@@H](O)[C@H]3O)[C@H]3COC(=O)[C@H]23)OCO4)cc(OC)c1O [Compound D, 4'-Demethyl-4-O-(β-D-ribofuranosyl)epipodophyllotoxin] | 130 | 18 (≈ 33.8 µM) |
| COc1cc([C@@H]2c3cc4c(cc3[C@@H](O[C@@H]3OC[C@@H](OC(C)=O)[C@@H](OC(C)=O)[C@H]3OC(C)=O)[C@H]3COC(=O)[C@H]23)OCO4)cc(OC)c1O [Compound E, 4'-Demethyl-4-O-(2,3,4-tri-O-acetyl-β-D-ribopyranosyl)epipodophyllotoxin] | 171 | 4 (≈ 6.07 µM) |
| COc1cc([C@@H]2c3cc4c(cc3[C@@H](O[C@@H]3OC[C@@H](O)[C@@H](O)[C@H]3O)[C@H]3COC(=O)[C@H]23)OCO4)cc(OC)c1O [Compound F, 4'-Demethyl-4-O-(β-D-ribopyranosyl)epipodophyllotoxin] | 181 | 1 (≈ 1.88 µM) |
| COc1cc([C@@H]2c3cc4c(cc3[C@@H](O[C@@H]3OC[C@H]5OC(C)O[C@H]5[C@H]3O)[C@H]3COC(=O)[C@H]23)OCO4)cc(OC)c1O (stereo partly drawn) [Compound G, 4'-Demethyl-4-O-(3,4-O-ethylidene-β-D-ribopyranosyl)epipodophyllotoxin] | 152 | 2.5 (≈ 4.48 µM) |
| COc1cc([C@@H]2c3cc4c(cc3[C@@H](O[C@@H]3OC[C@@H](O)[C@H](O)[C@H]3O)[C@H]3COC(=O)[C@H]23)OCO4)cc(OC)c1O [Compound H, 4'-Demethyl-4-O-(β-D-xylopyranosyl)epipodophyllotoxin] | 150 | 0.53 (≈ 0.995 µM) |
| COc1cc([C@@H]2c3cc4c(cc3[C@@H](O[C@H]3OC[C@@H](O)[C@H](O)[C@H]3O)[C@H]3COC(=O)[C@H]23)OCO4)cc(OC)c1O [Compound I, 4'-Demethyl-4-O-(α-D-xylopyranosyl)epipodophyllotoxin] | 140 | 2.3 (≈ 4.32 µM) |
| COc1cc([C@@H]2c3cc4c(cc3[C@@H](O[C@H]3OC[C@@H](O)[C@@H](O)[C@@H]3O)[C@H]3COC(=O)[C@H]23)OCO4)cc(OC)c1O [Compound K, 4'-Demethyl-4-O-(α-D-arabinopyranosyl)epipodophyllotoxin] | 125 | 28 (≈ 52.6 µM) |
| COc1cc([C@@H]2c3cc4c(cc3[C@@H](O[C@@H]3O[C@@H]5CO[C@@H](C)O[C@H]5[C@H](O)[C@H]3O)[C@H]3COC(=O)[C@H]23)OCO4)cc(OC)c1O [Etoposide, reference compound] | – | 0.21 (≈ 0.357 µM) |
